Results published in article PMC8790063, “Discovery of Benzopyrrolizidines as Promising Antigiardiasic Agents” (Frontiers in Cellular and Infection Microbiology, 2022).
“And” between values parts separate entries of the source, which are not always exact repeats. Equal values may be shown once.

Assays:
Assay type in all cases: cell-based
[1] = test system: Giardia lamblia trophozoites; experiment: Morphological studies of trophozoites (bright-field microscopy, transmission electron microscopy); conditions: at the IC50 concentration, 24 hours; for Morphological effects on trophozoites (bright-field microscopy): Giemsa stain
Method: For bright-field microscopy (BFM), 2x10^6 trophozoites were placed in 1.5 mL vials containing antibiotic-free TYI-S-33 culture medium, with or without metronidazole, tinidazole, albendazole, or the library compounds, at the IC50 concentration values. The trophozoites were incubated for 24 hours/37°C and harvested by chilling in ice bath for 15 minutes and centrifuged at 2,000 x g/5 minutes. The bottom cell was washed three times with PBS, and then, placed in glass slides, fixed with MeOH and stained with Giemsa. Finally, the samples were analyzed by BFM. To identify ultrastructural damage, 1x10^6 trophozoites treated as described before were fixed with 2.5% glutaraldehyde and post-fixed with 1% osmium tetroxide in 0.1 M cacodylate buffer, pH 7.2. Afterward, the samples were dehydrated with sequential increasing of ethanol concentrations and then, embedded in epoxy resin. Ultrathin sections of samples were analyzed in a JEOL-JEM-1200 transmission electron microscope coupled to a CCD GATAN camera in the Unidad de Imagenología del Instituto de Fisiología Celular, UNAM.

[2] = test system: Giardia lamblia trophozoites; experiment: In vitro cytotoxicity microassay with XTT viability readout on trophozoites; conditions: for % cell death 100 µM: second set of 20 compounds (Table S10); for % cell death at 12.5 µM (Hits confirmation) / % cell death at 25 µM (Hits confirmation) / % cell death at 50 µM (Hits confirmation) / % cell death at 100 µM (First screening): Table S9; for % cell death 100 µM / % cell death at 100 µM (First screening) / % cell death: 100 µM; for % cell death: first set of 54 compounds (Table S8); for IC50: G. lamblia trophozoites, standard deviation in parenthesis
Method: The cytotoxicity test was performed using sterile 96 well clear flat bottom polystyrene TC-treated microplates (Corning Costar #3596). Every well contained in a triplicate 287.5 µL medium supplemented with a first set of 54 compounds of the collection, control drugs (metronidazole and tinidazole), and negative controls (0.05% DMSO). Afterwards, 12.5 µL of a cell suspension containing 1.6 x 10^7 trophozoites/mL was added to every well to obtain a final number of 2x10^5 cells/well and incubated at 37°C for 24 hours. […] A triplicate of blank was done by filling three wells with only 300 µL culture medium (no cells but DMSO). After that, the plates were chilled for 30 minutes to separate the adhered trophozoites in wells. Later, we transferred 50 µL of this suspension to a second plate containing 250 µL of TYI-S-33 media free of compounds, DMSO or antibiotic per well, and re-cultivated at 37°C for 24 hours. The test was performed by two independent experiments for all compounds.
>The trophozoites viability was evaluated using the 2,3-Bis(2-methoxy-4-nitro-5-sulfophenyl)-sH-tetrazolium-5-carboxianilide inner salt (XTT) assay. Antigiardiasic activity of each compound was expressed as the death percentage, calculated by using the next equation ([Inc, 2020]):
% death=[(Abs. of well with 100% viability−Abs. of well with compound)/(Abs. of well with 100% viability−Abs. of blank well)]X 100
The assay was performed by two independent experiments, where each compound was tested by triplicate.

HaCaT cells = experiment: Cytotoxicity assay in human keratinocytes (crystal violet); conditions: for IC50: HaCaT human keratinocytes, standard deviation in parenthesis; for Selectivity Index: IC50 HaCaT/IC50 Trophozoites
Method: The in vitro cytotoxicity evaluation of compounds was assayed in immortalized human keratinocytes cell line (HaCat). Briefly, cell cultures were grown in DMEM-F12 media supplemented with 10% decomplemented fetal bovine serum, at 37°C and 5% CO2. Before to test, cells were harvested by centrifugation at 25°C and resuspended in fresh media at 5x10^4 cells/mL. Then, the cells were placed in sterile 24 well clear flat bottom polystyrene TC-treated plates (Corning Costar, #353047) at 3x10^4 cells/well in a volume of 600 µL during 24 hours/37°C at 5% CO2, […] of media was replaced by the same amount of fresh media containing the compounds at concentrations of 100, 90, 80, 70, 60, and 50 µM; DMSO was used as a negative control. The cells were incubated for 48 hours/37°C and 5% CO2. In the end, the cells were washed two times with PBS, fixed and stained by incubating 15 minutes in a solution containing 50% EtOH, 1.75% formaldehyde, 0.75% crystal violet, and 0.25% NaCl. Then, the plates were washed several times with water until removing the colorant excess. After that, the plates were dried for one day at 25°C. Finally, 600 µL of PBS supplemented with 1% SDS was added to wells. The crystal violet incorporated to cells was spectrophotometrically quantified at 570 nm; the IC50 values were calculated from the percentage of death obtained from the different concentrations of assayed compounds. The assay was performed by two independent experiments, each compound was tested by triplicate.

Compound | Ultrastructural effects on trophozoites (transmission electron microscopy) [1] | Morphological effects on trophozoites (bright-field microscopy) [1] | % cell death 25 µM ([2]; 25 µM, second set (Table S10)) [%] | % cell death 50 µM ([2]; 50 µM, second set (Table S10)) [%] | % cell death 100 µM [2] [%] | IC50 (HaCaT cells; 48 hours) [µM] | IC50 (HaCaT cells; Homo sapiens, HaCaT, 48 h) [µM] | Selectivity Index (HaCaT cells) | % cell death at 12.5 µM (Hits confirmation) [2] [%] | % cell death at 25 µM (Hits confirmation) ([2]; 25 µM) | % cell death at 50 µM (Hits confirmation) ([2]; 50 µM) [%] | % cell death at 100 µM (First screening) [2] [%] | % cell death [2] [%] | IC50 ([2]; Giardia duodenalis) [µM] | IC50 [2] [µM]
CCCSc1ccc2nc(NC(=O)OC)[nH]c2c1 [Albendazole] | loss of adhesive disc | an intense deformation of its general structure was observed | – | – | – | – | – | – | – | – | – | – | – | – | –
COc1ccc(/C=C2/CC3(C(=O)NC(C)(C)C)c4ccccc4CN3C2=O)cc1OC (stereo not drawn) [EHV-110-106] | – | – | 8.2 | 13.4 | 89.2 | – | – | – | – | – | – | – | – | – | –
COc1ccc(/C=C2/CC3(C(=O)NC4CCCCC4)c4ccccc4CN3C2=O)cc1OC (stereo not drawn) [EHV-110-154] | – | affected the nuclear structure and promoted the loss of one nucleus | – | – | – | 50.6 | 50 | 1.68 | 4.160 | 10.752% | 94.654 | 100.0 | 100.0 | 30 | –
COc1ccc(/C=C2/CC3(C(=O)NC(C)(C)C)c4cc(F)ccc4CN3C2=O)cc1OC (stereo not drawn) [EHV-110-160] | – | affected the nuclear structure and promoted the loss of one nucleus | – | – | – | – | 141 | 7 | 2.874 | 67% and 66.901% | 98.178 | 100.0 | 100.0 | 20 | –
COc1ccc(/C=C2/CC3(C(=O)N[C@@H](C)c4ccccc4)c4ccccc4CN3C2=O)cc1OC (stereo partly drawn) [EHV-110-174, 2-((Z)-3,4-dimethoxybenzylidene)-3-oxo-N-((S)-1-phenylethyl)-2,3-dihydro-1H-pyrrolo[2,1-a]isoindole-9b(5H)-carboxamide] | damaged the cellular nuclei inducing chromatin condensation and conferring to it a speckled pattern | the cells are translucent and swelling, with shortening of flagella but without general morphological deformation | – | – | – | – | 130 | 12 | – | 98.298% | 98.312 | 100.0 | 100.0 | 11 | 10.9
Cc1ncc([N+](=O)[O-])n1CCO [Metronidazole, reference compound] | without apparent morphologic changes | provoked cell swelling and the voiding of cytoplasmic contents making the cells translucent | – | – | 100.1 | – | 71.9 | 27.6 | 86.562 | – | – | 100.0 | 100.0 | 2.6 | –
CCS(=O)(=O)CCn1c([N+](=O)[O-])cnc1C [Tinidazole, reference compound] | – | provoked cell swelling and the voiding of cytoplasmic contents making the cells translucent | – | – | 100.7 | – | 60.9 | 46 | 98.499 | – | – | 100.0 | 100.0 | 1.3 | –
